# In PMC12389591, “Syzygium oleosum (F.Muell.) B.Hyland (Myrtaceae), an Unexplored Australian Species: Anatomical and Micromorphological Study of Leafy Twigs, and Characterization and Biological Activity of Their Essential Oil” (Plants, 2025):
# Where two headings read alike, the source gives them in different places. Marks after values point to notes of the source that are not given here.
# What was measured:
# [1] = β-Carotene Bleaching test (BCB); conditions: n = 3; for BCB IC50 (95% confidence limits): pure compounds tested at the concentration naturally present within the EO, n.r. = IC50 not reached
# Method: (§1) The antioxidant and anti-inflammatory properties of S. oleosum and its major bioactive compounds were evaluated using different in vitro assays based on different mechanisms and reaction environments according to Smeriglio et al.. Results were expressed as the concentration required to inhibit 50% of the oxidative or inflammatory activity (IC50, µg/mL), with corresponding 95% confidence limits (C.L.) calculated using the Litchfield and Wilcoxon method with PHARM/PCS software (version 4; Consulting, Wynnewood, PA, USA).
# In brief, 200 µL of EO (0.094–1.5 mg/mL), its main bioactive compounds (0.0289–0.4619 mg/mL, 0.0251–0.4019 mg/mL, 0.010–0.1604 mg/mL, and 0.0092–0.1479 mg/mL for terpinolene, β-pinene, α-pinene, and γ-terpinene), butylated hydroxytoluene (BHT, 1 mg/mL), or blank (0.1% DMSO) was added to 5 mL of β-carotene emulsion, prepared from 250 µL of β-carotene in ethyl acetate (1 mg/mL), 4 µL linoleic acid, and 40 µL Tween-40. An emulsion lacking β-carotene served as negative control. The mixtures were incubated at 50 °C for 2 h, and absorbance at 470 nm was measured at 20 min intervals using the same instrument as in Section TEAC Assay.
# [2] = Iron-Chelating Activity assay (ICA); conditions: n = 3; for ICA IC50 (95% confidence limits): pure compounds tested at the concentration naturally present within the EO, n.r. = IC50 not reached
# Method: (§2) The antioxidant and anti-inflammatory properties of S. oleosum and its major bioactive compounds were evaluated using different in vitro assays based on different mechanisms and reaction environments according to Smeriglio et al..
# After 5 min at RT, 50 µL of ferrozine solution (5 mM) and deionized water were added to bring the total volume to 1.5 mL.
# [3] = Trolox Equivalent Antioxidant Capacity assay (TEAC); conditions: n = 3; for TEAC IC50 (95% confidence limits): pure compounds tested at the concentration naturally present within the EO, n.r. = IC50 not reached
# Method: as §1
# To generate the 2,2′-azino-bis (3-ethylbenzothiazoline-6-sulfonic acid) (ABTS) radical cation solution, ABTS^+ (1.7 mM) was incubated with potassium persulfate (4.3 mM) in a 1:5 (v/v) ratio in the dark at room temperature (RT) for 12 h. The resulting solution was diluted to achieve an absorbance of 0.7 ± 0.02 at 734 nm. For the assay, 10 µL of either EO (ranging from 0.313 to 5 mg/mL), its main bioactive compounds (0.096–1.54 mg/mL, 0.084–1.34 mg/mL, 0.033–0.535 mg/mL, and 0.031–0.493 mg/mL for terpinolene, β-pinene, α-pinene, and γ-terpinene) or Trolox (0.625–10 µg/mL) was added to 200 µL of the ABTS solution and incubated at RT for 6 min. The absorbance at 734 nm was measured using a Multiskan™ GO UV-Vis microplate reader (Thermo Scientific, Waltham, MA, USA).
# trypsin = target: T1, trypsin (Bos taurus, UniProt P00760); experiment: Inhibition of protease activity (PIA); type: biochemical; conditions: pure compounds tested at the concentration naturally present within the EO, n = 3, n.r. = IC50 not reached
# T1 sequence (P00760 24-246): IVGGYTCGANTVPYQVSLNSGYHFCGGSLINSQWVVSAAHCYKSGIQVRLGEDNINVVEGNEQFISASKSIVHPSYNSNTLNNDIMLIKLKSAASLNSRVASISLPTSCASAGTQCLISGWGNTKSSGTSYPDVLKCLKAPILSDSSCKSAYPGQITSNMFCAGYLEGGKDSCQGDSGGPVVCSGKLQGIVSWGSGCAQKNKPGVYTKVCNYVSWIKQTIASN
# Method: as §2
# After a 20 min incubation at 37 °C, the reaction was halted with 400 µL of 2 M perchloric acid, followed by centrifugation at 3500 × g for 10 min.
# [4] = Oxygen Radical Absorbance Capacity assay (ORAC); conditions: n = 3; for ORAC IC50 (95% confidence limits): pure compounds tested at the concentration naturally present within the EO, n.r. = IC50 not reached
# Method: as §1
# ORAC activity was evaluated by combining 20 µL EO (ranging from 0.003 to 0.05 mg/mL), its main bioactive compounds (0.0010–0.0154 mg/mL, 0.0008–0.0134 mg/mL, 0.0003–0.0053 mg/mL, and […] for terpinolene, β-pinene, α-pinene, and γ-terpinene) or Trolox (0.25–2 µg/mL) with 120 µL of fluorescein solution (117 nM). After a 15-min pre-incubation at 37 °C, 60 µL of freshly prepared 2,2′-azobis (2-amidinopropane) dihydrochloride (AAPH) solution (40 mM) was added to initiate peroxyl radical formation. Fluorescence decay was monitored every 30 s for 90 min using excitation at 485 nm and emission at 520 nm on a FLUOstar Omega microplate reader (BMG LABTECH, Ortenberg, Germany).
# [5] = Ferric Reducing Antioxidant Power assay (FRAP); conditions: n = 3; for FRAP IC50 (95% confidence limits): pure compounds tested at the concentration naturally present within the EO, n.r. = IC50 not reached
# Method: as §1
# In this assay, 10 µL of EO (ranging from 0.313 to 5 mg/mL), its main bioactive compounds (0.096–1.54 mg/mL, 0.084–1.34 mg/mL, 0.033–0.535 mg/mL, and 0.031–0.493 mg/mL for terpinolene, β-pinene, α-pinene, and γ-terpinene) or Trolox (1.25–10 µg/mL) was mixed with 200 µL of FRAP reagent, pre-incubated at 37 °C. The reagent consisted of 10 mM 2,4,6-Tris (2-pyridyl)-s-triazine (TPTZ) in 40 mM HCl, 20 mM FeCl3·6H2O, and 300 mM acetate buffer (pH 3.6). The mixture was incubated for 4 min at RT in the dark before measuring absorbance at 593 nm with the same microplate reader used in Section TEAC Assay.
# BSA = BSA (Bos taurus, UniProt P02769); experiment: Inhibition of protein denaturation (ADA); type: biochemical; conditions: for ADA IC50 (95% confidence limits): pure compounds tested at the concentration naturally present within the EO, n = 3, n.r. = IC50 not reached
# [6] = target: butyrylcholinesterase (BChE) (Equus caballus, UniProt P81908); experiment: Cholinesterase inhibition, BChE; type: biochemical; conditions: pure compounds tested at the concentration naturally present in the EO, three experiments, n.r. = IC50 not reached
# Method: (§3) The cholinesterase inhibitory activity was evaluated according to the method described by Zheng and co-workers.
# [7] = target: acetylcholinesterase (AChE) (Electrophorus electricus, UniProt O42275); conditions: pure compounds tested at the concentration naturally present in the EO, three experiments, n.r. = IC50 not reached
# Method: as §3
# butyrylcholinesterase (BChE), sequence (P81908 whole entry): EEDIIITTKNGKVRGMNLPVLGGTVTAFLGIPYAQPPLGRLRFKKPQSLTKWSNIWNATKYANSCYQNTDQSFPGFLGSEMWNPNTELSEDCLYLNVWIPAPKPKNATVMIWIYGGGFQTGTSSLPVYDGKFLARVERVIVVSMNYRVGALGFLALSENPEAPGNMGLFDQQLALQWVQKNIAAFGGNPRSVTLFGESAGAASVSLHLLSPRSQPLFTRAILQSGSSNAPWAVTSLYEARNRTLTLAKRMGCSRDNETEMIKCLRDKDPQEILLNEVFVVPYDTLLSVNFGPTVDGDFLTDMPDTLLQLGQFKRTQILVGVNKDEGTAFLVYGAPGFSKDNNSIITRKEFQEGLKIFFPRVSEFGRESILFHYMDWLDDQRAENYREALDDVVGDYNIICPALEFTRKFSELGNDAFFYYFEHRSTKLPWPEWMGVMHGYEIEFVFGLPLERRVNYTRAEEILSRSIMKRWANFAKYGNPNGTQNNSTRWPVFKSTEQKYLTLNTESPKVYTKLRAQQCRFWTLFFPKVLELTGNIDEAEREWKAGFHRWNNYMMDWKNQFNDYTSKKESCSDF
# BSA, sequence (P02769 25-607): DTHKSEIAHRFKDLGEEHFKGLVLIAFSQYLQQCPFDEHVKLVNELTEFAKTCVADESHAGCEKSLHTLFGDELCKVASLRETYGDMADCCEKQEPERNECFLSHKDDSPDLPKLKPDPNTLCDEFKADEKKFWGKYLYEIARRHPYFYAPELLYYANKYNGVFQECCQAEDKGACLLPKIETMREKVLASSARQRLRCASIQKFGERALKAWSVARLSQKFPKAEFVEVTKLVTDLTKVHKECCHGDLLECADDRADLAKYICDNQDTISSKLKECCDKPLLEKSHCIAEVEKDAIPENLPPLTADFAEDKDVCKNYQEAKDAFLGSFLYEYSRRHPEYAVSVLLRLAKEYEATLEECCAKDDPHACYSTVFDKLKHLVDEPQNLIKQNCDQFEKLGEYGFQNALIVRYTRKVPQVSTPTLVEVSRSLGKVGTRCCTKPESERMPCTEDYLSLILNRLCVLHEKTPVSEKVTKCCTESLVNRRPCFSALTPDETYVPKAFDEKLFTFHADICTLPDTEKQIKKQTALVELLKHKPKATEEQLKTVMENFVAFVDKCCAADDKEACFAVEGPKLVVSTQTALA
# acetylcholinesterase (AChE), sequence (O42275 24-633): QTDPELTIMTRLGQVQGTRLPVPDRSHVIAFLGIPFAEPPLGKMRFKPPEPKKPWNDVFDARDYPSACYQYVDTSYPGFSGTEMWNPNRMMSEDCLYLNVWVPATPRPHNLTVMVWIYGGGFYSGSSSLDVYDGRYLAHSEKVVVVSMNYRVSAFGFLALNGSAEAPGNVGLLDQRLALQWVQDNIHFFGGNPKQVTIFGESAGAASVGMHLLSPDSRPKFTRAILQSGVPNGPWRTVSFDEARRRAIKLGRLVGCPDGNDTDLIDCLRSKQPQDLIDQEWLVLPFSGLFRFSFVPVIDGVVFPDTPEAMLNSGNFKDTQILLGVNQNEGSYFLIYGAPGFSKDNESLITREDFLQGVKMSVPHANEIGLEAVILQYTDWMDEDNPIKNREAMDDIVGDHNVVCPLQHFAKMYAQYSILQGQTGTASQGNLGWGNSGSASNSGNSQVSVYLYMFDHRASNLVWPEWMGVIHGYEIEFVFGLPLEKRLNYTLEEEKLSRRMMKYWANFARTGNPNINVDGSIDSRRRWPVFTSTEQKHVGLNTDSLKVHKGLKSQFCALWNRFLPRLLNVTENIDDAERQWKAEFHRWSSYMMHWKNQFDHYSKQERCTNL
Compound,ICA IC50 (95% confidence limits) [2],TEAC IC50 (95% confidence limits) [3],PIA IC50 (95% confidence limits) (trypsin),ORAC IC50 (95% confidence limits) [4],FRAP IC50 (95% confidence limits) [5],IC50 (BSA),BCB IC50 (95% confidence limits) [1],BChE IC50 ± standard deviation [6],further results
"Cc1cc(C(C)(C)C)c(O)c(C(C)(C)C)c1 [BHT, butylated hydroxytoluene]",,,,,,,,,"BCB IC50 (95% confidence limits), reference standard ([1]; RS BHT): 0.35 (0.17–80.58) *** µg/mL"
O=C(O)CN(CCN(CC(=O)O)CC(=O)O)CC(=O)O [EDTA],,,,,,,,,"ICA IC50 (95% confidence limits), reference standard ([2]; RS EDTA): 5.72 (2.32–87.13) *** µg/mL"
CC1=CCC(=C(C)C)CC1 [Terpinolene],n.r.,n.r.,did not reach the IC50 threshold,0.01 (0.00–0.04) mg/mL,n.r.,2350 µM,0.21 (0.10–0.45) mg/mL,,ICA IC50 (95% confidence limits) ([2]; listed as terpinolene): no appreciable activity; TEAC IC50 (95% confidence limits) ([3]; listed as terpinolene): neither compound reached 50% inhibition; FRAP IC50 (95% confidence limits) ([5]; listed as terpinolene): neither compound reached 50% inhibition
Cc1c(C)c2c(c(C)c1O)CCC(C)(C(=O)O)O2 (centres unmarked) [trolox],,,,,,,,,"TEAC IC50 (95% confidence limits), reference standard ([3]; RS trolox): 3.78 (1.48–9.67) *** µg/mL; ORAC IC50 (95% confidence limits), reference standard ([4]; RS trolox): 0.68 (0.22–82.17) *** µg/mL; FRAP IC50 (95% confidence limits), reference standard ([5]; RS trolox): 3.72 (1.60–8.66) *** µg/mL"
CC1=CCC2CC1C2(C)C (stereo not drawn) [α-Pinene],,n.r. ^b,,n.r.,n.r.,,inactive and n.r.,n.r.,BChE IC50 ± standard deviation ([6]; listed as α-pinene): failed to reach the IC50 threshold; ADA IC50 (95% confidence limits) (BSA): n.r.; ADA IC50 (95% confidence limits) (BSA; listed as α-pinene): did not reach 50% inhibition
C=C1CCC2CC1C2(C)C (stereo not drawn) [β-Pinene],0.03 (0.01–0.13) mg/mL,neither compound reached 50% inhibition and n.r.,did not reach the IC50 threshold and n.r.,n.r.,neither compound reached 50% inhibition and n.r.,2640 µM,n.r.,n.r.,AChE IC50 ± standard deviation [7]: n.r.; AChE IC50 ± standard deviation ([7]; listed as β-pinene): did not achieve 50% inhibition; BChE IC50 ± standard deviation ([6]; listed as β-pinene): failed to reach the IC50 threshold; BCB IC50 (95% confidence limits) ([1]; listed as β-pinene): inactive
CC1=CCC(C(C)C)=CC1 [γ-Terpinene],no appreciable activity and n.r.,n.r.,n.r.,n.r.,n.r.,807 µM,0.02 (0.02–0.03) mg/mL,n.r.,AChE IC50 ± standard deviation [7]: n.r.; AChE IC50 ± standard deviation ([7]; listed as γ-terpinene): did not achieve 50% inhibition; PIA IC50 (95% confidence limits) (trypsin; listed as γ-terpinene): did not reach the IC50 threshold; BChE IC50 ± standard deviation ([6]; listed as γ-terpinene): failed to reach the IC50 threshold
